These results are taken from patent EP0923529B1 (Bayer Corporation, priority 1996, dated 1997).

A word on the IC50: it is the concentration needed to halve the response being measured. A word on the inhibition: it is the change of the read-out against control, counted positive when it falls.

What all share (type): biochemical
The target of assay [1] is T1, MMP-2 (Homo sapiens, UniProt P08253).
T1 sequence (P08253 110-660): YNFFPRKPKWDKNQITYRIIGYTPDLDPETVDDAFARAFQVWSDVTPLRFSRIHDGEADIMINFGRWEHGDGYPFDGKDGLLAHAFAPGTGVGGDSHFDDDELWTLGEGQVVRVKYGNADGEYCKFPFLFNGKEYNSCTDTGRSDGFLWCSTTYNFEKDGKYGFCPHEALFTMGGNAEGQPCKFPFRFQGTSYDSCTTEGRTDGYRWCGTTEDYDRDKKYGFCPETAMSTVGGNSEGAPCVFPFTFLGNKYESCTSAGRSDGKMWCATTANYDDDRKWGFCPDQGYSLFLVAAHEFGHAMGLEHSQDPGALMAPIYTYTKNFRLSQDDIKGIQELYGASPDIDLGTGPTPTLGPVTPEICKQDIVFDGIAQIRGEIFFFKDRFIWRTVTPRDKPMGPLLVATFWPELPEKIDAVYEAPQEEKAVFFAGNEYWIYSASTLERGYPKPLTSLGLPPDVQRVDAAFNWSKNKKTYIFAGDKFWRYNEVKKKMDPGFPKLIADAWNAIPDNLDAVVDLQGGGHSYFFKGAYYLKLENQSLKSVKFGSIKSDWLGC
Nature of the assay: P218 quenched fluorescence assay (MMP Microfluorometric Profiling Assay), MMP-2. Conditions: for inhibition at 5 µM: read-out: MMP-2 % inhibition at 5 µM, inhibitor at 5 µM, given as I = x %.

Assay [2] concerns the target T2, MMP-9 (Homo sapiens, UniProt P14780).
T2 construct: made in house
Nature of the assay: P218 quenched fluorescence assay (MMP Microfluorometric Profiling Assay), MMP-9. Conditions: for IC50: P218 substrate 6 µM, 25 min at 37 °C, pH 6.5; for inhibition at 5 µM: read-out: MMP-9 % inhibition at 5 µM, inhibitor at 5 µM, given as I = x %. From the text: (§1) The P218 quenched fluorescence assay (Microfluorometric Profiling Assay) is a modification of that originally described by C. G. Knight et al., FEBS Letters, 296, 263-266 (1992) for a related substrate and a variety of matrix metalloproteinases (MMPs) in cuvettes. The assay was run with each exemplary compound of the invention and the three MMPs, MMP-3, MMP-9 and MMP-2, analyzed in parallel, adapted as follows for a 96-well microtitre plate and a Hamilton AT® workstation.
(§2) P218 is a synthetic substrate containing a 4-acetyl-7-methoxycoumarin (MCA) group in the N-terminal position and a 3-(2,4-dinitrophenyl)-(L)-2,3-diaminopropionyl (DPA) group internally. This is a modification of a peptide reported by Knight (1992) that was used as a substrate for matrix metalloproteinases. Once the P218 peptide is cleaved (putative clip site at the Ala-Leu bond), the fluorescence of the MCA group can be detected on a fluorometer with excitation at 328 nm and emission at 393 nm. P218 is currently being produced by BACHEM Bioscience, Inc. exclusively for the Bayer Corp. P218 has the structure: H-MCA-Pro-Lys-Pro-Leu-Ala-Leu-DPA-Ala-Arg-NH2 (MW 1332.2)
Human Recombinant Pro-MMP-9: Human recombinant pro-gelatinase B (pro-MMP-9) derived from U937 cDNA as described by S. M. Wilhelm et al., J. Biol. Chem., 264, 17213-17221 (1989) was expressed as the full-length form using a baculovirus protein expression system. The pro-enzyme was purified using methods previously described by M.S. Hibbs, et al., J. Biol. Chem., 260, 2493-500 (1984).
Activation of Pro-MMP-9 : Pro-MMP-9 (20 µg/mL) in an MMP-9 activation buffer consisting of 50 mM Tris at pH 7.4, 150 mM NaCl, 10 mM CaCl2 and 0.005% Brij-35 was activated by incubation with a 0.5 mM p-aminophenylmercuric acetate (APMA) for 3.5 h at 37 °C. The enzyme was dialyzed against the same buffer to remove APMA.
(§3) Hamilton Microlab AT Plus®: The MMP-profiling assay was performed robotically using a Hamilton MicroLab AT Plus®. The Hamilton was programmed to: (1) serially dilute up to 11 potential inhibitors automatically using a 2.5 mM stock solution of the inhibitor in 100% DMSO; (2) distribute substrate followed by inhibitor into a 96-well Cytofluor plate; and (3) add a single enzyme to the plate with mixing to start the reaction. Subsequent plates for each additional enzyme were prepared automatically by beginning the program at the substrate addition point, remixing the diluted inhibitors, and beginning the reaction by addition of enzyme. In this way, all MMP assays were done using the same inhibitor dilutions.
(§4) Millipore Cytofluor II: Following incubation, the plate was read on a Cytofluor II fluorometric plate reader with excitation at 340 nm and emission at 395 nm with the gain set at 80.
(§5) Microfluorometric Reaction Buffer (MRB): Dilutions of test compounds, enzymes and P218 substrate for the microfluorometric assay were made in microfluorometric reaction buffer (MRB) consisting of 50 mM 2-(N-morpholino)ethanesulfonic acid (MES) at pH 6.5 with 10 mM CaCl2, 150 mM NaCl, 0.005 % Brij-35 and 1% DMSO.
MMP Microfluorometric Profiling Assay. The assay was done with a final P218 concentration of 6 µM, approximately 0.5 to 0.8 nM of activated MMP (one MMP per 96-well plate), and with variable inhibitor concentrations. The Hamilton MicroLab AT Plus® was programmed to serially dilute up to 11 compounds from a 2.5 mM stock (100% DMSO) to 10-times the final compound concentrations in the assay. Initially, the instrument delivered various amounts of microfluorometric reaction buffer (MRB) to a 96-tube rack of 1 mL Marsh dilution tubes. The instrument picked up 20 µL inhibitor (2.5 mM) and mixed it with buffer in row A of the Marsh rack, resulting in a 50 µM inhibitor concentration. The inhibitors were then serially diluted to 10, 5, 1, 0.2, 0.05 and 0.01 µM. […] The instrument re-mixed and loaded 14.5 µL of diluted compound from rows A to G in the Marsh rack to the corresponding rows in the microtiter plate. […]

Assay [3] has as its target T3, MMP-3 (Homo sapiens, UniProt P08254).
T3 construct: made in house; host or cells: CHO cells
Nature of the assay: P218 quenched fluorescence assay (MMP Microfluorometric Profiling Assay), MMP-3. Conditions: for IC50: P218 substrate 6 µM, 25 min at 37 °C, pH 6.5; for inhibition at 5 µM: inhibitor at 5 µM, given as I = x %.
Source text: as §1, §2
Recombinant Human CHO Pro-MMP-3: Human CHO pro-stromelysin-257 (pro-MMP-3) was expressed and purified as described by T. J. Housley et al., J. Biol. Chem., 268, 4481-4487 (1993).
Activation of Pro-MMP-3: Pro-MMP-3 at 1.72 µM (100 µg/mL) in an MMP-3 activation buffer consisting of 5 mM Tris at pH 7.5, 5 mM CaCl2, 25 mM NaCl, and 0.005% Brij-35 was activated by incubation with TPCK (N-tosyl-(L)-phenylalanine chloromethyl ketone) trypsin (1:100 w/w to pro-MMP-3) at 25 °C for 30 min. The reaction was stopped by addition of soybean trypsin inhibitor (SBTI; 5:1 w/w to trypsin concentration).
as §3, §4, §5
MMP Microfluorometric Profiling Assay. The assay was done with a final P218 concentration of 6 µM, approximately 0.5 to 0.8 nM of activated MMP (one MMP per 96-well plate), and with variable inhibitor concentrations. The Hamilton MicroLab AT Plus® was programmed to serially dilute up to 11 compounds from a 2.5 mM stock (100% DMSO) to 10-times the final compound concentrations in the assay. Initially, the instrument delivered various amounts of microfluorometric reaction buffer (MRB) to a 96-tube rack of 1 mL Marsh dilution tubes. The instrument picked up 20 µL inhibitor (2.5 mM) and mixed it with buffer in row A of the Marsh rack, resulting in a 50 µM inhibitor concentration. The inhibitors were then serially diluted to 10, 5, 1, 0.2, 0.05 and 0.01 µM. […] The instrument re-mixed and loaded 14.5 µL of diluted compound from rows A to G in the Marsh rack to the corresponding rows in the microtiter plate.

[4] abbreviates: P218 substrate 6 µM, 25 min at 37 °C, pH 6.5, read-out: MMP-2 IC50.

Like-named read-outs stand apart in the source and are kept apart here.

T3 sequence (P08254 100-477): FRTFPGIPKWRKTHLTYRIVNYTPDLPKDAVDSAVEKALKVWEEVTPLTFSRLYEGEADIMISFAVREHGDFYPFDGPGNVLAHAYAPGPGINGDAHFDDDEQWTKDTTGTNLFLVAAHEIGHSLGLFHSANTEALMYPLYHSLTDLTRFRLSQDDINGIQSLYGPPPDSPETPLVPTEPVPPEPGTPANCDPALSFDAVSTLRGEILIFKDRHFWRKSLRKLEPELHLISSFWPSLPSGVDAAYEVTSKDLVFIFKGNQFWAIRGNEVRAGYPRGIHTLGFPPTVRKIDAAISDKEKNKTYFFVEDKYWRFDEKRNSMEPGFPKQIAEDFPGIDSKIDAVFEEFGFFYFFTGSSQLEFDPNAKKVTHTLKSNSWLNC
T2 sequence (P14780 107-707 limits assumed): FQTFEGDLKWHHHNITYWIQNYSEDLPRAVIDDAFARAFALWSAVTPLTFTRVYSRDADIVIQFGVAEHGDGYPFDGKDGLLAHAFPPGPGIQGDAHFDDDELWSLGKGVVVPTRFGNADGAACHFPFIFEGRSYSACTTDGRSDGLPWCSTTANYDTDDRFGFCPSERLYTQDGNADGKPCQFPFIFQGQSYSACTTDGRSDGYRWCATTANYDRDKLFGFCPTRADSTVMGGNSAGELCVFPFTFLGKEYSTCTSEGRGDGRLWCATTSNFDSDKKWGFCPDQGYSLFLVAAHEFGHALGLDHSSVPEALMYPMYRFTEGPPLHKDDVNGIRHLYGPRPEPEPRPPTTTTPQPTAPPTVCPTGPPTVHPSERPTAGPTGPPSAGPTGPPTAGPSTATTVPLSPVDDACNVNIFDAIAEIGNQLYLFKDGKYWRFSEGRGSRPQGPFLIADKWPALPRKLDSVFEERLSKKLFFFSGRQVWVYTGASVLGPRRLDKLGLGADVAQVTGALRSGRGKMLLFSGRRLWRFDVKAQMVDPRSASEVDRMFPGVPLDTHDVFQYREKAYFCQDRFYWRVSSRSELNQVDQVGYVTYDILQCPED

For `O=C(CC(CCCc1ccccc1)C(=O)O)c1ccc(C#CCO)cc1` (racemic) [Example 1, 4-(4-(3-hydroxyprop-1-ynyl)phenyl)-4-oxo-2-(3-phenylpropyl)butyric acid], the IC50 was 485 nM in assay [1] (setting [4]), 1850 nM in assay [2] and 3300 nM in assay [3].
As for `O=C(CC(CCN1C(=O)c2ccccc2C1=O)C(=O)O)c1ccc(Br)cc1` (stereo not shown) [Compound B, 4-(4-bromophenyl)-4-oxo-2-(2-phthalimidoethyl) butyric acid, reference compound], the figures for the IC50 in assay [1] and in assay [2] were 2400 nM and 1450 nM, respectively. In assay [3], this compound displayed an inhibition at 5 µM of 46%.
`O=C(CC(CCCc1ccccc1)C(=O)O)c1ccccc1` (stereo not shown) [Compound C, 4-phenyl-4-oxo-2-(3-phenylpropyl)butyric acid, reference compound]: the inhibition at 5 µM was 36% in assay [1], 23% in assay [2] and 20% in assay [3].
Turning to `O=C(CC(CCN1C(=O)c2ccccc2C1=O)C(=O)O)c1ccccc1` (stereo not shown) [Compound D, 4-phenyl-4-oxo-2-(2-phthalimidoethyl)butyric acid, reference compound], the IC50 is 1400 nM in assay [1], 1000 nM in assay [2] and 5000 nM in assay [3].
As to `CC(C)(C)[Si](C)(C)OCCCCC#Cc1ccc(C(=O)CC(CCN2C(=O)c3ccccc3C2=O)C(=O)O)cc1` (stereo not shown) [Compound E, reference compound], the results for the concentration for half-maximal inhibition (IC50) in assay [1] (setting [4]), in assay [2] and in assay [3] were 1450 nM, 5050 nM and 5100 nM, respectively.
As for `CCCCCCCCCCCCCCOc1ccc(C(=O)CC(CCN2C(=O)c3ccccc3C2=O)C(=O)O)cc1` (stereo not shown) [Compound F, 4-(4-tetradecyloxyphenyl)-4-oxo-2-(2-phthalimidoethyl)butyric acid, reference compound], the inhibition at 5 µM in assay [1] was determined as 16%; in assay [2] it was 6%; in assay [3] it was 18%.
In the case of `COc1ccc(C(=O)CC(CCN2C(=O)c3ccccc3C2=O)C(=O)O)cc1` (stereo not shown) [Compound G, 4-(4-methoxyphenyl)-4-oxo-2-(2-phthalimidoethyl)butyric acid, reference compound], the results for the inhibition at 5 µM in assay [1], in assay [2] and in assay [3] were 48%, 46% and 29%, respectively.
As for `CCCCC#Cc1ccc(C(=O)CC(CCCc2ccccc2)C(=O)O)cc1` (stereo not shown) [Example 2, 4-(4-(hex-1-ynyl)phenyl)-4-oxo-2-(3-phenylpropyl)butyric acid], the IC50 in assay [1] is 460 nM; in assay [2] it was 1570 nM; in assay [3], 1870 nM.
As for `O=C(CC(CCCc1ccccc1)C(=O)O)c1ccc(C#CCCCCO)cc1` (stereo not shown) [Example 3, 4-(4-(6-hydroxyhex-12-ynyl)phenyl)-4-oxo-2-(3-phenylpropyl)butyric acid], the IC50 in assay [1] (setting [4]) amounted to 640 nM; in assay [2], 4350 nM. Also, the inhibition at 5 µM in assay [3] came out at 43%.
For `CCCCC#Cc1ccc(C(=O)CC(CCN2C(=O)c3ccccc3C2=O)C(=O)O)cc1` (stereo not shown) [Example 4], the values for the IC50 in assay [1], in assay [2] and in assay [3] were 42 nM, 20 nM and 125 nM, respectively.
Turning to `O=C(CC(CCN1C(=O)c2ccccc2C1=O)C(=O)O)c1ccc(C#CCCCCO)cc1` (stereo not shown) [Example 5, 4-(4-(6-hydroxyhex-1-ynyl)phenyl)-4-oxo-2-(2-phthalimidoethyl)butyric acid], the results for the IC50 in assay [1], in assay [2] and in assay [3] were 92 nM, 150 nM and 870 nM, respectively.
Consider `O=C(CC(CCN1C(=O)c2ccccc2C1=O)C(=O)O)c1ccc(C#CCO)cc1` (stereo not shown) [Example 6, 4-(4-(3-hydroxyprop-1-ynyl)phenyl)-4-oxo-2-(2-phthalimidoethyl)butyric acid], for which the figures for the IC50 in assay [1], in assay [2] and in assay [3] were 130 nM, 76 nM and 565 nM, respectively.
On the same counts, the results for `CCCCCCc1ccc(C(=O)CC(CCN2C(=O)c3ccccc3C2=O)C(=O)O)cc1` (stereo not shown) [Example 7, 4-(4-hexylphenyl)-4-oxo-2-(2-phthalimidoethyl) butyric acid] are 295 nM, 400 nM and 1040 nM.
In the case of `CCCCCCCOc1ccc(C(=O)CC(CCN2C(=O)c3ccccc3C2=O)C(=O)O)cc1` (stereo not shown) [Example 10, 4-(4-heptyloxyphenyl)-4-oxo-2-(2-phthalimidoethyl) butyric acid], the IC50 came out at 40 nM in assay [1], 85 nM in assay [2] and 61 nM in assay [3].
As to `CCCCCCOc1ccc(C(=O)CC(CCN2C(=O)c3ccccc3C2=O)C(=O)O)cc1` (stereo not shown) [Example 11, 4-(4-hexyloxyphenyl)-4-oxo-2-(2-phthalimidoethyl) butyric acid], the IC50 was found to be 79 nM in assay [1], 68 nM in assay [2] and 114 nM in assay [3].
Compound `CCCCCCCCCCOc1ccc(C(=O)CC(CCN2C(=O)c3ccccc3C2=O)C(=O)O)cc1` (stereo not shown) [Example 12, 4-(4-decyloxyphenyl)-4-oxo-2-(2-phthalimidoethyl) butyric acid] returned a 50% inhibitory concentration (IC50) in assay [2] of 360 nM.
